Measured values as given in patent US9938269B2, “Inhibitor compounds of phosphodiesterase type 10A” (ABBVIE INC., priority 2011, dated 2018).
Counter-ions that a name gives are not always drawn.

Columns and labels:
PDE10A (human) = molecular target: T1, PDE10A (human) (Homo sapiens, UniProt Q9Y233); test: Measurement of PDE activity (HTRF cAMP kit), human PDE10A; format: biochemical; conditions: PDE enzymatic reaction, substrate 20 nM for PDE10, 60 minutes at 29 C
T1 construct: purchased BPS Bioscience
T1 sequence (Q9Y233 whole entry): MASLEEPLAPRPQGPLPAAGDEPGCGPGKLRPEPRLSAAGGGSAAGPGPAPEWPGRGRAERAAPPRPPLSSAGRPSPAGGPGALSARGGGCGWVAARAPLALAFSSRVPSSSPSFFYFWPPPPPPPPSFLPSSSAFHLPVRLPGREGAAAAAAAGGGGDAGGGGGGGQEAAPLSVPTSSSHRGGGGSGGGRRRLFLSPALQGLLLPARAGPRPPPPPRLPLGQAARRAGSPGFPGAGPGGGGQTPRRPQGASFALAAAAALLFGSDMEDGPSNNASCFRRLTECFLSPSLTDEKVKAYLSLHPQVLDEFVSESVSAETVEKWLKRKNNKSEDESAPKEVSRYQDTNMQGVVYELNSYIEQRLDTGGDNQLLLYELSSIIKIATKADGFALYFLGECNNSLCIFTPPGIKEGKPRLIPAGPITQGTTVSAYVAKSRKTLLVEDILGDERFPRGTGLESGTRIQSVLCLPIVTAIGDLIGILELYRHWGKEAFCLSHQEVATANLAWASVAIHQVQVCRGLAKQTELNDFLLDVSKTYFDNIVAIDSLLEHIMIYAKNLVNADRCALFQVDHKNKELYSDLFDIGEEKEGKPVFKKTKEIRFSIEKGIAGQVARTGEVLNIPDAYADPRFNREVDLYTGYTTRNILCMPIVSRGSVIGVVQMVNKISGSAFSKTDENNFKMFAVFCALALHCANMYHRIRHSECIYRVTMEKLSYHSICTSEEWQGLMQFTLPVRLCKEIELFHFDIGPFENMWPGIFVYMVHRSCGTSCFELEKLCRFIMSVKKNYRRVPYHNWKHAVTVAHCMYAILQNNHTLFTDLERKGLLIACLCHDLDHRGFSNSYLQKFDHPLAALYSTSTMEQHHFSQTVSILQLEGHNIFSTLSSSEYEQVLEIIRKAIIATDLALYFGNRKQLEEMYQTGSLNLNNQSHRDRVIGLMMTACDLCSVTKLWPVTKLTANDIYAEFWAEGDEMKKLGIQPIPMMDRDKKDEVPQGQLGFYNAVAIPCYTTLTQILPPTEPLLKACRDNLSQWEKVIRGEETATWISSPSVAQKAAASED
How it was run: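 Recombinant human PDE10A (10–250 pM range across PDEs) with 20 nM cAMP substrate in 20 mM Tris-HCl pH 7.5, 10 mM MgCl2, 0.1% BSA, compound pre-mixed with enzyme. Ran 60 min at 29 °C. Remaining cAMP read by HTRF, converted to % of uninhibited activity, and IC50 fitted.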

[1] = Determination of the microsomal half-life, rat liver microsomes; conditions: rat, liver microsomes, pH 7.4
Experimental: (§1) The test substances were incubated in a concentration of 0.5 μM as follows:
(§2) 0.5 μM test substance are preincubated together with liver microsomes from different species (from rat, human or other species) (0.25 mg of microsomal protein/10 in 0.05 M potassium phosphate buffer of pH 7.4 in microtiter plates at 37° C. for 5 min. The reaction is started by adding NADPH (1 mg/mL). After 0, 5, 10, 15, 20 and 30 min., 50 μl aliquots are removed, and the reaction is immediately stopped and cooled with the same volume of acetonitrile. The samples are frozen until analyzed. The remaining concentration of undegraded test substance is determined by MSMS. The half-life (T½) is determined from the gradient of the signal of test substance/unit time plot, it being possible to calculate the half-life of the test substance, assuming first order kinetics, from the decrease in the concentration of the compound with time. The microsomal clearance (mCl) is calculated from mCl=ln 2/T½/(content of microsomal protein in mg/ml)×1000 [ml/min/mg]

[2] = Determination of the microsomal half-life, human liver microsomes; conditions: for microsomal CLint at 0.5 μM: human, liver microsomes, pH 7.4
Experimental: as §1, §2

SMILES | IC50 (PDE10A (human)) | microsomal CLint at 0.5 μM [1] | microsomal CLint at 0.5 μM [2] | Human mCl (mikrosomal clearance) ([2]; human liver microsomes, 0.5 μM test substance, 0.25 mg microsomal protein, pH 7.4, 37° C., NADPH)
O=C1c2c(cc(F)cc2-c2ccncc2)CN1CCc1ccc2ccccc2n1 [Example 15, 5-Fluoro-7-pyridin-4-yl-2-(2-quinolin-2-yl-ethyl)-2,3-dihydro-isoindol-1-one] | < 100 nM | > 220 µL/min/mg | 100 to 220 µL/min/mg | –
O=C1c2c(cccc2N2CCC3(COC3)C2)CN1CCc1ccc2ccccc2n1 [Example 134, 7-(2-Oxa-6-aza-spiro[3.4]oct-6-yl)-2-(2-quinolin-2-yl-ethyl)-2,3-dihydro-isoindol-1-one] | < 100 nM | 100 to 220 µL/min/mg | > 220 µL/min/mg | –
O=C1c2cccc(OCc3cccnc3)c2C(=O)N1CCc1ccc2ccccc2n1 [Example 246, 4-(Pyridin-3-ylmethoxy)-2-(2-quinolin-2-yl-ethyl)-isoindole-1,3-dione] | < 100 nM | > 220 µL/min/mg | 100 to 220 µL/min/mg | –
COc1ccc(-c2cncnc2)c2c1CN(CCc1ccc3ccccc3n1)C2=O [Example 183, 4-Methoxy-7-pyrimidin-5-yl-2-(2-quinolin-2-yl-ethyl)-2,3-dihydro-isoindol-1-one] | < 100 nM | 100 to 220 µL/min/mg | 100 to 220 µL/min/mg | –
O=C1c2c(cccc2N2CCN(c3ccncc3)CC2)CN1CCc1ccc2ccccc2n1 [Example 106, 7-(4-Pyridin-4-yl-piperazin-1-yl)-2-(2-quinolin-2-yl-ethyl)-2,3-dihydro-isoindol-1-one] | 200 to 500 nM | < 100 µL/min/mg | 100 to 220 µL/min/mg | –
O=C1c2c(C3=CCOCC3)ccnc2CN1CCc1ccc2ccccc2n1 [Example 265, 4-(3,6-Dihydro-2H-pyran-4-yl)-6-(2-quinolin-2-yl-ethyl)-6,7-dihydro-pyrrolo[3,4-b]pyridin-5-one] | < 100 nM | 100 to 220 µL/min/mg | 100 to 220 µL/min/mg | –
O=C1c2c(cccc2N2CC[S+]([O-])CC2)CN1CCc1ccc2ccccc2n1 [Example 135, 7-(1-oxo-thiomorpholin-4-yl)-2-(2-quinolin-2-yl-ethyl)-2,3-dihydro-isoindol-1-one] | < 100 nM | < 100 µL/min/mg | < 100 µL/min/mg | –

Next, values leading:

IC50 (PDE10A (human)) | microsomal CLint at 0.5 μM [1] | microsomal CLint at 0.5 μM [2] | Human mCl (mikrosomal clearance) ([2]; human liver microsomes, 0.5 μM test substance, 0.25 mg microsomal protein, pH 7.4, 37° C., NADPH) | SMILES
< 100 nM | 100 to 220 µL/min/mg | 100 to 220 µL/min/mg | – | O=C1c2c(cccc2NC2COC2)CN1CCc1ccc2ccccc2n1 [Example 274, 7-(Oxetan-3-ylamino)-2-(2-quinolin-2-yl-ethyl)-2,3-dihydro-isoindol-1-one]
< 100 nM | < 100 µL/min/mg | 100 to 220 µL/min/mg | – | O=C1c2c(N3CC4COCC4C3)ccnc2CN1CCc1nc2ccccc2s1 (stereo not drawn) [compound 426, 4-(1,3,3a,4,6,6a-Hexahydrofuro[3,4-c]pyrrol-5-yl)-6-[2-(1,3-benzothiazol-2-yl)ethyl]-7H-pyrrolo[3,4-b]pyridin-5-one]
< 100 nM | < 100 µL/min/mg | – | ◯ | O=C1c2c(N3CCOCC3)ccnc2CN1CCc1cn2ccsc2n1 [compound 425, 6-(2-Imidazo[2,1-b]thiazol-6-ylethyl)-4-morpholino-7H-pyrrolo[3,4-b]pyridin-5-one]
< 100 nM | < 100 µL/min/mg | < 100 µL/min/mg | – | O=C1c2c(-c3cc[nH]n3)ccnc2CN1CCc1cn2ccccc2n1 [compound 413, 6-(2-Imidazo[1,2-a]pyridin-2-yl-ethyl)-4-(1H-pyrazol-3-yl)-6,7-dihydro-pyrrolo[3,4-b]pyridin-5-one]
< 100 nM | < 100 µL/min/mg | < 100 µL/min/mg | – | O=C1c2c(N3CCOCC3)ccnc2CN1CCc1cn2cc(F)ccc2n1 [compound 493, 6-[2-(6-Fluoroimidazo[1,2-a]pyridin-2-yl)ethyl]-4-morpholino-7H-pyrrolo[3,4-b]pyridin-5-one trifluoroacetate]
100 to 200 nM | > 220 µL/min/mg | 100 to 220 µL/min/mg | – | O=C1c2c(-c3ccc(F)cc3)ccc(F)c2CN1CCc1cn2ccccc2n1 [Example 379, 4-Fluoro-7-(4-fluoro-phenyl)-2-(2-imidazol[1,2-a]pyridin-2-yl-ethyl)-2,3-dihydro-isoindol-1-one]
